Source: article PMC10275055, “Preventing recurrence in Sonic Hedgehog Subgroup Medulloblastoma using the OLIG2 inhibitor CT-179” (Research Square, 2023)

Columns and labels:
R403 and R902 MBOs = experiment: MB explant organoids (MBOs), cleaved caspase-3 staining; type: cell-based, human; settings: 1 μM, 48 hours, CT-179 alone
Text: MB cell lines Daoy, UW228, and D283 were obtained from the American Type Culture Collection (ATCC) and cultured in RPMI supplemented with 1% Penicillin-Streptomycin, 1% GlutaMax-I CTS (Gibco) and 10% fetal bovine serum (FBS) (Gibco). MB002, D425 and PER547 primary cell lines were kindly provided by Dr. Tobias Schoep (Telethon Kids Institute, WA). Med-2312 PDX, Neo-113 PDX, Med-2112 PDX, Med-113 PDX and Med-813 PDX were filter tissues purchased from the Olson Laboratory (https://research.fhcrc.org/olson/en/btrl.html). Cell lines derived from the corresponding PDX tissues were labelled as primary cell lines. MB-R201 PDX is a MB PDX model generated and established in our laboratory. MB-R203 is a primary MB cell line. Primary cell lines were derived from MB patient specimens and cultured either in serum-free media grown as spheres or on matrigel. The serum-free media was prepared as previously described. Fresh surgically resected MB tissues were obtained from Queensland Children’s Tumor Bank. MB explant organoids (MBOs), R403 and R901, were generated by microdissection under a stereomicroscope (Zeiss) within a laminar flow biosafety cabinet. The MBOs were cultured in glioblastoma organoid (GBO) medium modified based on Jacob et al.. All cell lines were incubated at 37 °C under 5% CO2/95% humidified air atmosphere. […]

HEK293 cells = experiment: Cell viability, OLIG2-negative HEK293; type: cell-based, human; settings: HEK293, does not express OLIG2
Procedure: (§1) Cell proliferation was determined by a CellTiter 96® Non-Radioactive Cell Proliferation Assay (Promega) kit. Absorbance at 490 nm was measured on a Biotek PowerWave (Biotek, USA) plate scanner to obtain raw data. Average absorbance from triplicate wells were plotted against concentration using GraphPad Prism software v.7.0 (GraphPad software). At the indicated time points, cells were stained using FITC-conjugated Annexin V and Annexin V binding buffer (BD Pharmingen™) according to the manufacturer’s instructions. Annexin V or propidium iodide (PI)-positive cells were analyzed using a Fortessa 5 Flow Cytometer (Becton Dickinson) and data was analyzed using FlowJo® software (Tree Star).

Daoy MB cell line = experiment: Cell viability, 7 days treatment, Daoy; type: cell-based; settings: Homo sapiens, 168 h
Procedure: as §1

[1] = target: T1, Discoidin Domain Receptor Tyrosine Kinase 2 (DDR2) (Homo sapiens, UniProt Q16832); experiment: Kinase profiling (KINOMEscan / SelectScreen), DDR2; type: biochemical; settings: ATP equal to Km
T1 sequence (Q16832 22-855): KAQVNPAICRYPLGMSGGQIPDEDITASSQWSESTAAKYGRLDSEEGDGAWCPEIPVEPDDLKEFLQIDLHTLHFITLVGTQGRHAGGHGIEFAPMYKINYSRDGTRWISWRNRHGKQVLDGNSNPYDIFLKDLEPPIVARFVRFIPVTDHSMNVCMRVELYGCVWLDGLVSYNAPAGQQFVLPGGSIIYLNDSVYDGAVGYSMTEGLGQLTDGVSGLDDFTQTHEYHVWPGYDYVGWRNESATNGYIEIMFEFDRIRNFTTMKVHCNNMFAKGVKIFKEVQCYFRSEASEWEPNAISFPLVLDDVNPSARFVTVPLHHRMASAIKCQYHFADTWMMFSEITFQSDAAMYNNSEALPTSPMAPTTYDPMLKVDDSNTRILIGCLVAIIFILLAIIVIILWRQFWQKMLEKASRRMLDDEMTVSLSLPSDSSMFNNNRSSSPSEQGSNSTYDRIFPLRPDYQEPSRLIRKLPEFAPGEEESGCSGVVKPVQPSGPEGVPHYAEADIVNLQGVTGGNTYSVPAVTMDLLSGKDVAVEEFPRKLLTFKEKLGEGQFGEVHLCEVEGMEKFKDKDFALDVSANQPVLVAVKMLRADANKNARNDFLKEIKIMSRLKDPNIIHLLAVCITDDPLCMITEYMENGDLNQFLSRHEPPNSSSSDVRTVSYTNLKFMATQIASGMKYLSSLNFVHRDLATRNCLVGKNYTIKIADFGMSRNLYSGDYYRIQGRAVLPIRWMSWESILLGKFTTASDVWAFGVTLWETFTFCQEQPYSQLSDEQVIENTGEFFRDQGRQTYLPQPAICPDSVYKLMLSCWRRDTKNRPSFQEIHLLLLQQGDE
Procedure: Effect of CT-179 on protein kinase activity was evaluated using the Thermofisher Scientific SelectScreen Kinase Profiling Service. Over 400 human protein kinases were tested in the presence of 1 μM final concentration of CT-179 at an ATP concentration equal to the known ATP Km for each kinase. The experiment was done by Curtana Pharmaceuticals. Data is presented as percentage of inhibition of enzyme activity. Software CORAL was used to make the kinome tree, which is available from: http://phanstiel-lab.med.unc.edu/CORAL/.

## Cc1cc(NCCCN(C)C)nc(NC(=O)Nc2ccc(Cl)c(Cl)c2)n1 [CT-179]
R403 and R902 MBOs
  cell death, cleaved caspase-3 staining: significant cell death
HEK293 cells
  growth suppression: not suppressed
Daoy MB cell line
  IC50: 144 nM
[1]
  inhibition at 1 µM: 80%
